# Source: PMC2726796 (Journal of the American Chemical Society, 2008)
# T1: KtzS (Kutzneria sp. 744, UniProt A8CF73)
# T1 sequence (A8CF73 1-174): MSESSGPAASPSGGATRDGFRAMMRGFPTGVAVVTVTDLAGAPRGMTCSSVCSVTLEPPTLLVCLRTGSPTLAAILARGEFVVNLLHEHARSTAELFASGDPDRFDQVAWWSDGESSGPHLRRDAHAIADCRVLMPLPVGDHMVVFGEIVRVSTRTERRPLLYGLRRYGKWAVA
# B1: KtzR (Kutzneria sp. 744) (protein)
# chain: MVIVGGGTAGWMTAAYLKTAFGDRLSITVVESSRIGTIGVGEATFSDIQHFFQFLNLREQDWMPACNATYKLGIRFENWRHVGHHFYQPFEQIRPVYGFPLTDWWLHDAPTDRFDTDCFVMPNLCEAGRSPRHLDGTLADEDFVEEGDELANRTMSEHQGKSQFPYAYHFEAALLAKFLTGYAVDRGVEHVVDDVLDVRLDQRGWIEHVVTAEHGEIHGDLFVDCTGFRGLLLNKALGVPFVSYQDTLPNDSAVALQVPLDMQRRGIVPNTTATAREAGWIWTIPLFGRVGTGYVYAKDYLSPEEAERTLREFVGPAAADVEANHIRMRIGRSQESWRNNCVAIGLSSGFVEPLESTGIFFIHHAIEQLVKHFPAADWNPKSRDMYNSAVAHVMDGIREFLVIHYRGAARADNQYWRDTKTRPLPDGLAERIECWQTQLPDTETIYPYYHGLPPYSYMCILMGGGAIRTPASAALALTDQGAAQKEFAAVRDRAAQLRDTLPSHYEYLARMRGLDV
# Experiments:
# [1] = target: T1, KtzS; test: flavin reductase activity of purified enzyme; type: biochemical
# [2] = substrate: N[C@@H](Cc1c[nH]c2ccccc12)C(=O)O; test: coupled halogenation assay with flavin reductase; type: biochemical, Kutzneria sp. 744; details: FAD, NADH, excess KtzS or SsuE, chloride, O2
# [3] = substrate: N[C@@H](Cc1c[nH]c2c(Cl)cccc12)C(=O)O; test: coupled halogenation assay with flavin reductase; type: biochemical, Kutzneria sp. 744; details: FAD, NADH, excess KtzS or SsuE, chloride, O2
molecule,measurement,setting,value
NC(=O)C1=CN([C@@H]2O[C@H](COP(=O)(O)OP(=O)(O)OC[C@H]3O[C@@H](n4cnc5c(N)ncnc54)[C@H](O)[C@@H]3O)[C@@H](O)[C@H]2O)C=CC1 [NADH],flavin reductase activity of purified enzyme,[1]; FAD as acceptor,shown to be an NADH-utilizing FAD reductase
Cc1cc2nc3c(=O)[nH]c(=O)nc-3n(C[C@H](O)[C@H](O)[C@H](O)COP(=O)(O)OP(=O)(O)OC[C@H]3O[C@@H](n4cnc5c(N)ncnc54)[C@H](O)[C@@H]3O)c2cc1C [FAD],flavin reductase activity of purified enzyme,[1]; NADH as reductant,shown to be an NADH-utilizing FAD reductase
B1,Km,[2],808 µM
same,Km,[3],114 µM
